Columns and labels:
Test in all cases: radiometric filter-binding kinase assay, Kinase HotSpot
Conditions in all cases: compound 0.5 µM; ATP 10 µM
[1] = biological target: ACVR1 (human) (UniProt Q04771)
[2] = biological target: ADRBK1 (human) (UniProt P25098)
[3] = biological target: AURKA (human) (UniProt O14965)
[4] = biological target: AURKC (human) (UniProt Q9UQB9)
[5] = biological target: BRSK1 (human) (UniProt Q8TDC3)
[6] = biological target: CAMK2G (human) (UniProt Q13555)
[7] = biological target: CDC42BPB (human) (UniProt Q9Y5S2)
[8] = biological target: CDK2 CCNA2 (human) (UniProt P24941+P20248)
Sequence of CDK2 CCNA2 (human) (P20248 whole entry, looked up, other chains not shown): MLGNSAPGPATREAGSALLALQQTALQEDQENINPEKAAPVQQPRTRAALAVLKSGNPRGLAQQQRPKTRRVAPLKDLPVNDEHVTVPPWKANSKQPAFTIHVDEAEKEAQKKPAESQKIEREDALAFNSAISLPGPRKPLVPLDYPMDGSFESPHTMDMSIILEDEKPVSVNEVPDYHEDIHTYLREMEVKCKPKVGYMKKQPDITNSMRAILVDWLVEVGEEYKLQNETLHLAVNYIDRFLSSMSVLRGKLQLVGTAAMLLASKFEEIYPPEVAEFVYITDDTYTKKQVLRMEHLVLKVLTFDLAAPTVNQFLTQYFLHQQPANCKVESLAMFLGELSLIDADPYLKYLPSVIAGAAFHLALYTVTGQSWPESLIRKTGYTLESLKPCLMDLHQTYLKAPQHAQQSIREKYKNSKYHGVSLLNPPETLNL

[9] = biological target: CDK5 CDK5R1 p25 (human) (UniProt Q00535+Q15078)
Sequence of CDK5 CDK5R1 p25 (human) (Q00535 whole entry, looked up): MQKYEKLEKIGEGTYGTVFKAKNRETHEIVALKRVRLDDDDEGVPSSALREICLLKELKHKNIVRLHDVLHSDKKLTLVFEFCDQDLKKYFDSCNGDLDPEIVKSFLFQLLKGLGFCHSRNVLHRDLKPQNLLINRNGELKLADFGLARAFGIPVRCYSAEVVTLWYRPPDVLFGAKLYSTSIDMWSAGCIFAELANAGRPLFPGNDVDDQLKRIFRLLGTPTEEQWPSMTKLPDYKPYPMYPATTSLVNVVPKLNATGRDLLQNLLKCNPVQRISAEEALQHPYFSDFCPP
Sequence of CDK5 CDK5R1 p25 (human) (Q15078 whole entry, looked up): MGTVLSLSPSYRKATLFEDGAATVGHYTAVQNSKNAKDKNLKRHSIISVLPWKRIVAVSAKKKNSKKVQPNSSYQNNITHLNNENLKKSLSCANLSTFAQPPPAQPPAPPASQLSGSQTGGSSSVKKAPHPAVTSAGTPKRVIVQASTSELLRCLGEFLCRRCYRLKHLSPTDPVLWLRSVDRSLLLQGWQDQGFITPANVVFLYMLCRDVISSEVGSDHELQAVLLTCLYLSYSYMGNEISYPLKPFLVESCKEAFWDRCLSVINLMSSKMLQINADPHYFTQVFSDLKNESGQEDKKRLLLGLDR

[10] = biological target: CLK4 (human) (UniProt Q9HAZ1)
[11] = biological target: CSNK1A1 (human) (UniProt P48729)
[12] = biological target: CSNK1E (human) (UniProt P49674)
Sequence of CSNK1E (human) (P49674 whole entry, looked up): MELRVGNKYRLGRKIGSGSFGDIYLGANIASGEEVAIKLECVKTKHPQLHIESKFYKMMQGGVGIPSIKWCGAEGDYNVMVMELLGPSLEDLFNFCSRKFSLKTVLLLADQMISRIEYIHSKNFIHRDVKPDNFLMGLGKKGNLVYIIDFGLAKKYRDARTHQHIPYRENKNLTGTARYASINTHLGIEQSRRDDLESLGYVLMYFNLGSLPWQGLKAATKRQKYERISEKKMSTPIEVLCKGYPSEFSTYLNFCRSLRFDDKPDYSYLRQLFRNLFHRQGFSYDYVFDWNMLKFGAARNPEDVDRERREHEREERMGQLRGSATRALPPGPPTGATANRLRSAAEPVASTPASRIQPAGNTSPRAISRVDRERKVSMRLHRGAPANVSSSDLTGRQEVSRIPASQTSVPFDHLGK

[13] = biological target: CSNK1G3 (human) (UniProt Q9Y6M4)
Sequence of CSNK1G3 (human) (Q9Y6M4 whole entry, looked up): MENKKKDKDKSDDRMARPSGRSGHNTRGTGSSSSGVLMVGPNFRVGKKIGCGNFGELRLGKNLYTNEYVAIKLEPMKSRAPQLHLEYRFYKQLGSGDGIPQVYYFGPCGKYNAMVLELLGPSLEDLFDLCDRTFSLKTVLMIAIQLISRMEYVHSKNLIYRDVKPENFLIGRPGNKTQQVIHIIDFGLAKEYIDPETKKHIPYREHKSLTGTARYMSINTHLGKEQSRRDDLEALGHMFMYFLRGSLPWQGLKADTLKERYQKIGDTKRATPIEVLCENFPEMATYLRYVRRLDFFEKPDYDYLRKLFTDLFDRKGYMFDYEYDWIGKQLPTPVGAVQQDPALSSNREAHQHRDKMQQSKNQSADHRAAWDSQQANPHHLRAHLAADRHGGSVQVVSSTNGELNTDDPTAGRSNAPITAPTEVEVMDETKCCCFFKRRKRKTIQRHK

[14] = biological target: DAPK3 (human) (UniProt O43293)
[15] = biological target: DMPK (human) (UniProt Q09013)
[16] = biological target: DYRK4 (human) (UniProt Q9NR20)
[17] = biological target: EPHA1 (human) (UniProt P21709)
[18] = biological target: ERBB4 (human) (UniProt Q15303)
[19] = biological target: FGFR1 (human) (UniProt P11362)
[20] = biological target: FGFR4 (human) (UniProt P22455)
Sequence of FGFR4 (human) (P22455 whole entry, looked up): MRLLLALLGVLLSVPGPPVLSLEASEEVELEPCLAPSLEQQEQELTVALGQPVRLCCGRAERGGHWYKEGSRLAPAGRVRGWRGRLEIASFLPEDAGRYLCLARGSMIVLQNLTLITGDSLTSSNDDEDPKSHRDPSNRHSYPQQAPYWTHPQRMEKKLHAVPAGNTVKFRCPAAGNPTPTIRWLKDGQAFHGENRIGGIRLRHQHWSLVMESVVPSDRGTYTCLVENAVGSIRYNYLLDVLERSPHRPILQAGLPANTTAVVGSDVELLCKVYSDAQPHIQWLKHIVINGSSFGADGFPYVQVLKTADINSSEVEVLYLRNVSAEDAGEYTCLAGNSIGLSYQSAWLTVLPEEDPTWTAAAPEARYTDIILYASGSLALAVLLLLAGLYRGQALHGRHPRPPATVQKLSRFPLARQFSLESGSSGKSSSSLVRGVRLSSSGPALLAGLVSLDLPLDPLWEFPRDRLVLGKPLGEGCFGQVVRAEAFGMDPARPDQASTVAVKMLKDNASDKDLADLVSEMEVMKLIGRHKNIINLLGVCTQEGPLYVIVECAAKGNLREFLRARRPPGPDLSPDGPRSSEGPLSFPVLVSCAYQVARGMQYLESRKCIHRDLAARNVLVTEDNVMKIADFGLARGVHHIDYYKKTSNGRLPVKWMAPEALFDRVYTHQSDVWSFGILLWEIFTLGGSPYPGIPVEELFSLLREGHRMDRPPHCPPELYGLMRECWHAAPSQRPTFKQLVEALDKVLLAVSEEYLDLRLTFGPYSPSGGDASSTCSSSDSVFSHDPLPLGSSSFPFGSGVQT

[21] = biological target: GSK3A (human) (UniProt P49840)
[22] = biological target: MAP3K3 (human) (UniProt Q99759)
[23] = biological target: MAP3K8 (human) (UniProt P41279)
[24] = biological target: MKNK2 (human) (UniProt Q9HBH9)
Sequence of MKNK2 (human) (Q9HBH9 whole entry, looked up): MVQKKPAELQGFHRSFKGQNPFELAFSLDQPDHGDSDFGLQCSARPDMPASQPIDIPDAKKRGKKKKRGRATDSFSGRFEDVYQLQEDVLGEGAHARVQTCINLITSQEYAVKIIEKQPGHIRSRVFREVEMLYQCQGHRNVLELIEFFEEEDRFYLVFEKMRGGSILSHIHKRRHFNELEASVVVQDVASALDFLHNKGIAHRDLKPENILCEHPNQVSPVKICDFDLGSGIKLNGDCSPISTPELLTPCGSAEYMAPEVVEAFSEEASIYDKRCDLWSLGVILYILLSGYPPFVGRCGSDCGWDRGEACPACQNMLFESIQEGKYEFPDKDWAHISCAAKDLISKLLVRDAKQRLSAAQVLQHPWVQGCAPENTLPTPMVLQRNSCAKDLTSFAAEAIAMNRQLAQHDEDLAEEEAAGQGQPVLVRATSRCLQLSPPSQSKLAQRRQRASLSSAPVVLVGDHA

[25] = biological target: MYLK (human) (UniProt Q15746)
[26] = biological target: MYLK2 (human) (UniProt Q9H1R3)
[27] = biological target: NUAK1 (human) (UniProt O60285)
Sequence of NUAK1 (human) (O60285 whole entry, looked up): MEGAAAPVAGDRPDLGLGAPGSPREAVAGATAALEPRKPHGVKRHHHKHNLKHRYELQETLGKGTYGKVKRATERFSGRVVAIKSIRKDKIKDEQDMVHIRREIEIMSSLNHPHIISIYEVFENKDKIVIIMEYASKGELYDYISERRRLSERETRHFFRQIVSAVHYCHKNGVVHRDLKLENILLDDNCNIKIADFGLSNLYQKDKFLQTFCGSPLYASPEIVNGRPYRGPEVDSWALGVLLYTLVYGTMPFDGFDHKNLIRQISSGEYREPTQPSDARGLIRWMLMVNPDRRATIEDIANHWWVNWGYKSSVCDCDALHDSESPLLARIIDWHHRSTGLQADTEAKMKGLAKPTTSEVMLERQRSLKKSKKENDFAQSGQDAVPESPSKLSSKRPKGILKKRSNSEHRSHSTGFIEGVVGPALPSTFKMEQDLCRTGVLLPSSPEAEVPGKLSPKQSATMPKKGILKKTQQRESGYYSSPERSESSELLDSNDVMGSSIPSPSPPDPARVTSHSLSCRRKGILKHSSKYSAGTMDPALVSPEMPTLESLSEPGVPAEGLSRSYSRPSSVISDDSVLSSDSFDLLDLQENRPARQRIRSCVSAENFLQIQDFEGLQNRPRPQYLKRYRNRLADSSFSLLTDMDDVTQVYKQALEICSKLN

[28] = biological target: PAK3 (human) (UniProt O75914)
[29] = biological target: PIM3 (human) (UniProt Q86V86)
[30] = biological target: PRKACA (human) (UniProt P17612)
[31] = biological target: PTK2 (human) (UniProt Q05397)
[32] = biological target: RAF1 (human) (UniProt P04049)
[33] = biological target: RIPK2 (human) (UniProt O43353)
Sequence of RIPK2 (human) (O43353 whole entry, looked up): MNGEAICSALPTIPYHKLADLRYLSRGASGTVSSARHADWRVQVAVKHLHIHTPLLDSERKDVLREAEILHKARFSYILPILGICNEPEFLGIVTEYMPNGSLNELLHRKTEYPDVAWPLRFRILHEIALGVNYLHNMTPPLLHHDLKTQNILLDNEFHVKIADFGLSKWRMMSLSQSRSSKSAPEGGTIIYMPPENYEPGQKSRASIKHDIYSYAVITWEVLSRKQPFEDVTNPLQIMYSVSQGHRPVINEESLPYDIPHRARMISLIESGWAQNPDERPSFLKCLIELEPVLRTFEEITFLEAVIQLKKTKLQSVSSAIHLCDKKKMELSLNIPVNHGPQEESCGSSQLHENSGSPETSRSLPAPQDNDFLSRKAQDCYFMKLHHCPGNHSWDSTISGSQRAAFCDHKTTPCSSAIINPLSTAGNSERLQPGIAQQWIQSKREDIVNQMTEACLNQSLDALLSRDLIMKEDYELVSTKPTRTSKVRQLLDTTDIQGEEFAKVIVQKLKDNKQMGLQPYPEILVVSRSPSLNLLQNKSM

[34] = biological target: ROS1 (human) (UniProt P08922)
[35] = biological target: RPS6KA5 KD2 (human) (UniProt O75582)
[36] = biological target: RPS6KA6 KD1 KD2 (human) (UniProt Q9UK32)
[37] = biological target: RPS6KB2 (human) (UniProt Q9UBS0)
[38] = biological target: SRPK1 (human) (UniProt Q96SB4)
[39] = biological target: TEC (human) (UniProt P42680)
Sequence of TEC (human) (P42680 whole entry, looked up): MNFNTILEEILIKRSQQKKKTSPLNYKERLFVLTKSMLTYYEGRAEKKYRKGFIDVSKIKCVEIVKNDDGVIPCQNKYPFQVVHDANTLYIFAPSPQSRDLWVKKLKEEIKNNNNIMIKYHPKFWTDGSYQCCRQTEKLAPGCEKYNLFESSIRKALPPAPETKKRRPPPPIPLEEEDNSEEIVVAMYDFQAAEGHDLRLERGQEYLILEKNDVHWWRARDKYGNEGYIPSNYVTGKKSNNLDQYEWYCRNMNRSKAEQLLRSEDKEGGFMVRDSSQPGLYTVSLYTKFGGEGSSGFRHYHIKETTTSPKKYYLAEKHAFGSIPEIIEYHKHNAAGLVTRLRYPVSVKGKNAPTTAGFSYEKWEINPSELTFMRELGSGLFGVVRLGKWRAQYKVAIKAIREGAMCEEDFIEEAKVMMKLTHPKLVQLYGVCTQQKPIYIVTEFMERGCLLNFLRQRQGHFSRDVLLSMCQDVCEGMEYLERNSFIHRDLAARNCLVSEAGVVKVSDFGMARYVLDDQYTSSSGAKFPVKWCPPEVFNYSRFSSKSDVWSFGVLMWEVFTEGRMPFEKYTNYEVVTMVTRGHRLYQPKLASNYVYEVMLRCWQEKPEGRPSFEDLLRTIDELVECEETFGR

[40] = biological target: TGFBR1 (human) (UniProt P36897)
[41] = biological target: ULK1 (human) (UniProt O75385)
[42] = biological target: YES1 (human) (UniProt P07947)

SMILES: N#C/C(=C\c1ccc(O)c(O)c1)C(=O)NCc1ccccc1
- residual activity [1]: 91.3%
- residual activity [2]: 96.6%
- residual activity [3]: 92.2%
- residual activity [4]: 95.5%
- residual activity [5]: 104%
- residual activity [6]: 94.1%
- residual activity [7]: 103%
- residual activity [8]: 99.2%
- residual activity [9]: 101%
- residual activity [10]: 94%
- residual activity [11]: 110%
- residual activity [12]: 86.3%
- residual activity [13]: 104%
- residual activity [14]: 86.5%
- residual activity [15]: 99.7%
- residual activity [16]: 106%
- residual activity [17]: 99.4%
- residual activity [18]: 80.9%
- residual activity [19]: 92.8%
- residual activity [20]: 84.2%
- residual activity [21]: 96.5%
- residual activity [22]: 102%
- residual activity [23]: 98.1%
- residual activity [24]: 87.9%
- residual activity [25]: 94.5%
- residual activity [26]: 97.9%
- residual activity [27]: 90%
- residual activity [28]: 101%
- residual activity [29]: 95.8%
- residual activity [30]: 104%
- residual activity [31]: 96.9%
- residual activity [32]: 92.8%
- residual activity [33]: 101%
- residual activity [34]: 101%
- residual activity [35]: 102%
- residual activity [36]: 108%
- residual activity [37]: 94.7%
- residual activity [38]: 104%
- residual activity [39]: 123%
- residual activity [40]: 97.6%
- residual activity [41]: 92.9%
- residual activity [42]: 103%

SMILES: Cn1c2ccccc2c2c3c(c4c5ccccc5n(CCC#N)c4c21)CNC3=O
- residual activity [1]: 155%
- residual activity [2]: 103%
- residual activity [3]: 56.8%
- residual activity [4]: 55.7%
- residual activity [5]: 20.2%
- residual activity [6]: 21.9%
- residual activity [7]: 92.1%
- residual activity [8]: 20.8%
- residual activity [9]: 21.3%
- residual activity [10]: 66.2%
- residual activity [11]: 75.4%
- residual activity [12]: 80.4%
- residual activity [13]: 137%
- residual activity [14]: 93.6%
- residual activity [15]: 101%
- residual activity [16]: 95.7%
- residual activity [17]: 81.6%
- residual activity [18]: 100%
- residual activity [19]: 63.3%
- residual activity [20]: 86.5%
- residual activity [21]: 35.6%
- residual activity [22]: 5.86%
- residual activity [23]: 111%
- residual activity [24]: 18%
- residual activity [25]: 24.6%
- residual activity [26]: 59.6%
- residual activity [27]: 3.86%
- residual activity [28]: 122%
- residual activity [29]: 17.3%
- residual activity [30]: 83.7%
- residual activity [31]: 77%
- residual activity [32]: 111%
- residual activity [33]: 55.1%
- residual activity [34]: 1.18%
- residual activity [35]: 23.7%
- residual activity [36]: 4.2%
- residual activity [37]: 21.6%
- residual activity [38]: 98.3%
- residual activity [39]: 96.4%
- residual activity [40]: 104%
- residual activity [41]: 106%
- residual activity [42]: 68.7%
